We go through six compounds from patent US9486462B2, “Formulations of aminoglycosides and fosfomycin in a combination having improved chemical properties” (CARDEAS PHARMA CORPORATION, priority 2013, dated 2016).

For data set [1] the following is noted: commercially available; cited from earlier work.
Data set [2] in a line: pH of amikacin starting materials. The format is physicochemical. The note with it: amikacin base, before neutralization.
The conditions of data set [3]: cited from earlier work.
The test system of a further data set is pseudomonas. To be noted: approximately 20 mg delivered to the lung, co-infected patients; cited from earlier work.
Data set [4] deals with Staphylococcus aureus. Briefly: Predicted lung concentration relative to MIC90, Staphylococcus aureus. The format is in vivo. The method, then:
(§1) In clinical use, concentration of the aminoglycoside and fosfomycin are delivered to yield a concentration in the lungs that is MIC90 for the target organism. For amikacin, about […] of amikacin chloride and about […] of fosfomycin disodium are delivered to the lung (50 mg amikacin chloride and 20 mg fosfomycin in solution) using a nebulizer with an expected 15% delivery efficiency.

The test system of data set [5] is Staphylococcus aureus. The note with it: cited from earlier work.
The conditions of data set [6]: in vivo. Here is the method:
as §1

The subject of data set [7] is highly resistant Gram-negative organisms. Briefly: Predicted lung concentration relative to MIC90, Gram-negative organisms. The format is in vivo. To be noted: most highly resistant Gram-negative organisms. The method, then:
as §1

For the compound `NCC[C@H](O)C(=O)N[C@@H]1C[C@H](N)[C@@H](O[C@H]2O[C@H](CN)[C@@H](O)[C@H](O)[C@H]2O)[C@H](O)[C@H]1O[C@H]1O[C@H](CO)[C@@H](O)[C@H](N)[C@H]1O.O=S(=O)(O)O.O=S(=O)(O)O` [amikacin sulfate], the “starting pH” value in data set [1] is on record as 3.5-5.5.
On to `NCC[C@H](O)C(=O)N[C@@H]1C[C@H](N)[C@@H](O[C@H]2O[C@H](CN)[C@@H](O)[C@H](O)[C@H]2O)[C@H](O)[C@H]1O[C@H]1O[C@H](CO)[C@@H](O)[C@H](N)[C@H]1O` [amikacin], for which, in data set [2], the pH entry is “approximately 11”.
Consider `NCC[C@H](O)C(=O)N[C@@H]1C[C@H](N)[C@@H](O[C@H]2O[C@H](CN)CC[C@H]2N)[C@H](O)[C@H]1O[C@H]1O[C@H](CO)[C@@H](O)[C@H](N)[C@H]1O` [arbekacin], for which the pKa in data set [3] is 10.2.
As for `C[C@@H]1O[C@@H]1P(=O)(O)O` [fosfomycin], the bacterial density entry in the data set with pseudomonas is given as “Decreased bacterial density”; with Staphylococcus aureus [5] (approximately 20 mg delivered to the lung, co-infected patients) it was “Decreased bacterial density”. In the data set with Staphylococcus aureus [4], the “predicted peak concentration, times the MIC90” value is given as “greater than 25 times”. Also, the killing of staphylococcus entry in the data set with Staphylococcus aureus [5] (estimated 40 mg delivered dose versus estimated 20 mg dose) is listed as “more efficacious”. The “predicted concentration delivered to the lungs” value in data set [6] is “about 5400 ug/mL”.
Regarding amikacin chloride, the “predicted lung concentration, times the MIC90” value in data set [7] is “greater than 25 times”. For the same compound, the “predicted concentration delivered to the lungs” value in data set [6] is reported as “about 13,500 ug/mL”.
gentamycin: the pKa in data set [3] is on record as 8.2.

One may read the pKa as the negative logarithm of the acid dissociation constant.
